According to ChEMBL document CHEMBL3865818, “4,5-Diaryl-3H-1,2-dithiole-3-thiones and related compounds as combretastatin A-4/oltipraz hybrids: Synthesis, molecular modelling and evaluation as antiproliferative agents and inhibitors of tubulin” (Eur J Med Chem, 2016):
Calls of active or inactive are those of the source. The rule behind the calls is not given here.

Columns and labels:
[1] = Cell cycle arrest in human KB cells assessed as accumulation at SubG1-phase at 0.05 uM measured after 36 hrs by propidium iodide staining-based flow cytometry (reference value: 0.63%); format: functional
[2] = Cell cycle arrest in human KB cells assessed as accumulation at G0/G1-phase at 0.05 uM measured after 48 hrs by propidium iodide staining-based flow cytometry (reference value: 58.26%); format: functional
[3] = Inhibition of porcine brain tubulin polymerization measured after 60 mins by fluorescence analysis; parameters: species or system Sus scrofa
[4] = Cell cycle arrest in human KB cells assessed as accumulation at G0/G1-phase at 0.2 uM measured after 60 hrs by propidium iodide staining-based flow cytometry (reference value: 63.85%); format: functional
[5] = Cell cycle arrest in human KB cells assessed as accumulation at G0/G1-phase at 0.2 uM measured after 36 hrs by propidium iodide staining-based flow cytometry (reference value: 51.51%); format: functional
[6] = Cell cycle arrest in human KB cells assessed as accumulation at S-phase measured after 60 hrs by propidium iodide staining-based flow cytometry (reference value: 12.66%); format: functional
[7] = Cell cycle arrest in human KB cells assessed as accumulation at SubG1-phase at 0.2 uM measured after 36 hrs by propidium iodide staining-based flow cytometry (reference value: 0.63%); format: functional
[8] = test system: KB; test: Inhibition of alpha-tubulin in human KB cells assessed as induction of mitotic catastrophe by measuring multiple micronuclei formation at 0.2 uM by DAPI staining-based immunofluorescence assay; format: cell-based
[9] = Cell cycle arrest in human KB cells assessed as accumulation at SubG1-phase at 0.05 uM measured after 60 hrs by propidium iodide staining-based flow cytometry (reference value: 1.24%); format: functional
[10] = Cell cycle arrest in human KB cells assessed as accumulation at SubG1-phase at 0.05 uM measured after 48 hrs by propidium iodide staining-based flow cytometry (reference value: 0.61%); format: functional
[11] = test system: KB; test: Inhibition of alpha-tubulin in human KB cells assessed as disruption of microtubule formation at 0.2 uM by DAPI staining-based immunofluorescence assay; format: cell-based
[12] = Cell cycle arrest in human KB cells assessed as accumulation at SubG1-phase at 0.2 uM measured after 12 hrs by propidium iodide staining-based flow cytometry (reference value: 1.23%); format: functional
[13] = Cell cycle arrest in human KB cells assessed as accumulation at G0/G1-phase measured after 24 hrs by propidium iodide staining-based flow cytometry (reference value: 48.52%); format: functional
[14] = Cell cycle arrest in human KB cells assessed as accumulation at SubG1-phase measured after 48 hrs by propidium iodide staining-based flow cytometry (reference value: 0.61%); format: functional
[15] = Cell cycle arrest in human KB cells assessed as accumulation at G0/G1-phase at 0.05 uM measured after 24 hrs by propidium iodide staining-based flow cytometry (reference value: 48.52%); format: functional
[16] = Cell cycle arrest in human KB cells assessed as increase in subG1-peak at 0.2 uM by propidium iodide staining-based flow cytometry; format: functional; settings: TDE = time-dependent effect
[17] = Cell cycle arrest in human KB cells assessed as accumulation at G2/M-phase at 0.1 uM measured after 24 hrs by propidium iodide staining-based flow cytometry (reference value: 28.84%); format: functional
[18] = Cell cycle arrest in human KB cells assessed as accumulation at S-phase at 0.1 uM measured after 60 hrs by propidium iodide staining-based flow cytometry (reference value: 12.66%); format: functional
[19] = Cell cycle arrest in human KB cells assessed as accumulation at G2/M-phase at 0.05 uM measured after 12 hrs by propidium iodide staining-based flow cytometry (reference value: 30.19%); format: functional
[20] = Cell cycle arrest in human KB cells assessed as accumulation at G0/G1-phase measured after 12 hrs by propidium iodide staining-based flow cytometry (reference value: 48.26%); format: functional
[21] = Cell cycle arrest in human KB cells assessed as accumulation at SubG1-phase at 0.2 uM measured after 60 hrs by propidium iodide staining-based flow cytometry (reference value: 1.24%); format: functional
[22] = Cell cycle arrest in human KB cells assessed as accumulation at G0/G1-phase measured after 60 hrs by propidium iodide staining-based flow cytometry (reference value: 63.85%); format: functional
[23] = Cell cycle arrest in human KB cells assessed as accumulation at S-phase at 0.05 uM measured after 24 hrs by propidium iodide staining-based flow cytometry (reference value: 16.96%); format: functional
[24] = Cell cycle arrest in human KB cells assessed as accumulation at SubG1-phase measured after 60 hrs by propidium iodide staining-based flow cytometry (reference value: 1.24%); format: functional
[25] = Cell cycle arrest in human KB cells assessed as accumulation at G2/M-phase measured after 48 hrs by propidium iodide staining-based flow cytometry (reference value: 23.36%); format: functional
[26] = Cell cycle arrest in human KB cells assessed as accumulation at G0/G1-phase at 0.1 uM measured after 24 hrs by propidium iodide staining-based flow cytometry (reference value: 48.52%); format: functional
[27] = Antiproliferative activity against human HT1080 cells measured after 72 hrs by MTT assay; format: functional, cell-based; settings: HT-1080, 72 h
[28] = Cell cycle arrest in human KB cells assessed as accumulation at S-phase measured after 24 hrs by propidium iodide staining-based flow cytometry (reference value: 16.96%); format: functional
[29] = Cell cycle arrest in human KB cells assessed as accumulation at G2/M-phase at 0.05 uM measured after 60 hrs by propidium iodide staining-based flow cytometry (reference value: 18.9%); format: functional
[30] = Cell cycle arrest in human KB cells assessed as accumulation at G2/M-phase measured after 12 hrs by propidium iodide staining-based flow cytometry (reference value: 30.19%); format: functional
[31] = Cell cycle arrest in human KB cells assessed as accumulation at SubG1-phase at 0.1 uM measured after 36 hrs by propidium iodide staining-based flow cytometry (reference value: 0.63%); format: functional
[32] = Cell cycle arrest in human KB cells assessed as accumulation at SubG1-phase at 0.2 uM measured after 24 hrs by propidium iodide staining-based flow cytometry (reference value: 0.76%); format: functional
[33] = Cell cycle arrest in human KB cells assessed as accumulation at G2/M-phase at 0.1 uM measured after 48 hrs by propidium iodide staining-based flow cytometry (reference value: 23.36%); format: functional
[34] = Cell cycle arrest in human KB cells assessed as accumulation at G0/G1-phase measured after 48 hrs by propidium iodide staining-based flow cytometry (reference value: 58.26%); format: functional
[35] = Cell cycle arrest in human KB cells assessed as accumulation at SubG1-phase at 0.1 uM measured after 60 hrs by propidium iodide staining-based flow cytometry (reference value: 1.24%); format: functional
[36] = Cell cycle arrest in human KB cells assessed as accumulation at S-phase measured after 36 hrs by propidium iodide staining-based flow cytometry (reference value: 16.51%); format: functional
[37] = Cell cycle arrest in human KB cells assessed as accumulation at SubG1-phase at 0.1 uM measured after 12 hrs by propidium iodide staining-based flow cytometry (reference value: 1.23%); format: functional

SMILES: COc1ccc(-c2ssc(=O)c2-c2cc(OC)c(OC)c(OC)c2)cc1N
- Activity [1]: 10.1%
- Activity [2]: 50.9%
- IC50 [3]: 4440 nM
- Activity [4]: 10.4%
- Activity [5]: 7.48%
- Activity [6]: 6.78%
- Activity [7]: 33.2%
- Activity [8]: Active
- Activity [9]: 34.4%
- Activity [10]: 15.8%
- Activity [11]: Active
- Activity [12]: 2.22%
- Activity [13]: 6.89%
- Activity [14]: 56.1%
- Activity [15]: 36.7%
- Activity [16]: Tde
- Activity [17]: 41.8%
- Activity [18]: 9.61%
- Activity [19]: 30.5%
- Activity [20]: 8.18%
- Activity [21]: 55.3%
- Activity [22]: 6.81%
- Activity [23]: 15.5%
- Activity [24]: 58.1%
- Activity [25]: 15.5%
- Activity [26]: 13.1%
- IC50 [27]: 147 nM
- Activity [28]: 26.9%
- Activity [29]: 14%
- Activity [30]: 64.4%
- Activity [31]: 24.3%
- Activity [32]: 11.1%
- Activity [33]: 22.6%
- Activity [34]: 11.3%
- Activity [35]: 57.8%
- Activity [36]: 25.4%
- Activity [37]: 2.67%
